Results as given in patent US7807701B2, “Dibenzylamine compounds and pharmaceutical use thereof” (Japan Tobacco Inc., priority 2002, dated 2010).
pIC50: −log10 of the molar value. Where a name gives a salt, the structure may show the parent alone.

Tests used:
CETP [1] = target: T1, CETP (Homo sapiens, UniProt P11597); assay: Inhibitory effect in vitro on CETP activity in total plasma; format: biochemical; details: plasma of healthy subject with [3H]CE-HDL3, 37° C., 4 hr; average values
T1 construct: The donor lipoprotein obtained above was added to plasma of healthy subject; from tissue; host or cells: whole plasma of healthy subject
T1 sequence (P11597 18-493): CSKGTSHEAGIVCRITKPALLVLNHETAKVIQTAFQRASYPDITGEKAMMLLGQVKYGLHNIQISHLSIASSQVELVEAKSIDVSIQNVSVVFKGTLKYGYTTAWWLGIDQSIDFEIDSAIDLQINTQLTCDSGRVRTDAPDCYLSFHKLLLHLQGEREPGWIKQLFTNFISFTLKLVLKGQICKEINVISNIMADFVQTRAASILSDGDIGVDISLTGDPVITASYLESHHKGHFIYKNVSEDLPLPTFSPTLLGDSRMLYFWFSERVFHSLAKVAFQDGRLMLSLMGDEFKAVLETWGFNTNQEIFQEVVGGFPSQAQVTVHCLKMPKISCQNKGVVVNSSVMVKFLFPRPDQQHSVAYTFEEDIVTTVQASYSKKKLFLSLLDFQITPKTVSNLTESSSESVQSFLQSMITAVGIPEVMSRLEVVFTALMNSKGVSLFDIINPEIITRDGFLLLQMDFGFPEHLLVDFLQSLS
Summary of the method: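 Healthy-donor plasma spiked with [3H]cholesteryl ester-labelled HDL3 (1,000 dpm/μL) was incubated with compound (DMF vehicle) for 4 hr at 37 °C or 4 °C. HDL was separated by MgCl2/dextran sulfate precipitation and supernatant radioactivity counted. IC50 is the concentration giving 50% inhibition of CETP activity.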

CETP [2] = assay: Inhibitory effect exo vivo on CETP activity in total plasma of normal hamster; details: blood taken 2 hr after administration, average values
Method: Potassium bromide (KBr) was added to plasma (40 mL) of healthy subject and the mixture was adjusted to have a specific density d=1.125 g/mL. The mixture was subjected to density gradient centrifugation (227,000×g, 4° C., 17 hr) and a fraction showing a specific density of d>1.125 g/mL (HDL3 fraction) was harvested. The obtained fraction was dialyzed against PBS solution [10 mmol/L Na2HPO4; 10 mmol/L NaH2PO4; 0.15 mol/L NaCl; […] (pH 7.4)]. Then, tritium-labeled cholesterol (37 MBq) was dissolved in 95% ethanol, gradually added to the above-mentioned HDL3 fraction with stirring and incubated at 37° C. for 18 hr. [By this operation, tritium-labeled cholesterol was esterified by the action of lecithin acyl transferase (LCAT) present on the HDL3 surface and taken up into HDL3 as tritium-labeled cholesteryl ester ([^3H]CE)]. After incubation, KBr was added, the mixture was adjusted to have a specific density d=1.21 g/mL, subjected to density gradient centrifugation (227,000×g, 4° C., 17 hr) and a fraction of specific density […] was harvested. The obtained fraction was dialyzed against the aforementioned PBS solution to give HDL3 incorporating [^3H]CE ([^3H]CE-HDL3, specific density: 1.125<d<1.21, specific activity: 10,000 dpm/μL), which was used as a donor lipoprotein.
The compound of the present invention was suspended in 0.5% methyl cellulose solution and orally administered once to a healthy hamster with a plastic gavage needle. Blood was taken at 2 or 4 hr after the administration and CETP activity in plasma was measured according to the following method.
The donor lipoprotein obtained above was added to hamster plasma (100 μL) to prepare [^3H]CE-HDL3-containing plasma (ca. 1,000 dpm/μL). The [^3H]CE-HDL3-containing plasma was dispensed to two microtubes by 25 μL each, and one was incubated at 37° C. and the other was incubated at 4° C. for 4 hr each. After ice-cooling, TBS solution (50 μl) containing 1 mol/L magnesium chloride and 2% dextran sulfate was added to each microtube and the mixture was thoroughly stirred. After keeping at […] for 30 min, the mixture was centrifuged (10,000×g, 4° C., 20 min), and the radioactivity in the obtained supernatant (HDL fraction) was measured with a liquid scintillation counter. The radioactivity of the [^3H]CE-HDL3-containing plasma was measured with a liquid scintillation counter, and taken as the total radioactivity. The transfer rate of [^3H]CE was calculated from the following formula using the total radioactivity (Total count), radioactivity by 37° C. incubation (37° C. count) and radioactivity by 4° C. incubation (4° C. count) of the sample of each individual and taken as the CETP activity. CETP activity(transfer ratio (%))={[(4° C. count)−(37° C. count)]/(Total count)}×100
The CETP activity inhibitory ratio of each compound administration group based on the CETP activity of the solvent administration group as 100% was calculated from the following formula and expressed in %.
CETP activity inhibitory ratio (%)=100−[(CETP activity of each compound administration group)/(CETP activity of solvent administration group)×100]

| Compound | pIC50 (CETP [1]) | CETP activity (%) 2 (hr later) (CETP [2]; single oral dose 30 mg/kg) [%] | CETP activity (%) 2 (hr later) (CETP [2]; single oral dose 10 mg/kg) [%] |
| --- | --- | --- | --- |
| CCN(CCCCC(=O)OC)c1cc2c(cc1CN(Cc1cc(C(F)(F)F)cc(C(F)(F)F)c1)c1nnn(C)n1)CCC2.Cl [Example 35, methyl 5-[N-(6-{[N′-[3,5-bis(trifluoromethyl)benzyl]-N′-(2-methyl-2H-tetrazol-5-yl)amino]methyl}indan-5-yl)-N-ethylamino]pentanoate hydrochloride] | 6.46 | 37.8 |  |
| CCN(CCCCC(=O)O)c1cc2c(cc1CN(Cc1cc(C#N)cc(C(F)(F)F)c1)c1nnn(C)n1)CCC2.Cl [Example 39, 5-[N-(6-{[N′-(3-cyano-5-trifluoromethylbenzyl)-N′-(2-methyl-2H-tetrazol-5-yl)amino]methyl}indan-5-yl)-N-ethylamino]pentanoic acid hydrochloride] | 6.06 | 49.6 |  |
| CCN(CCCCC(=O)OC)c1cc2c(cc1CN(Cc1cc(C(F)(F)F)cc(C(F)(F)F)c1)c1ccn(C)n1)CCC2.Cl [Example 37, methyl 5-[N-(6-[{N′-[3,5-bis(trifluoromethyl)benzyl]-N′-(1-methyl-1H-pyrazol-3-yl)amino]methyl}indan-5-yl)-N-ethylamino]pentanoate hydrochloride] | 6.10 | 45.4 |  |
| CCN(CCCCC(=O)O)c1ccc(OC(F)(F)F)cc1CN(Cc1cc(C(F)(F)F)cc(C(F)(F)F)c1)c1nnn(C)n1.Cl [Example 89, 5-[N-(2-{[N′-[3,5-bis(trifluoromethyl)benzyl]-N′-(2-methyl-2H-tetrazol-5-yl)amino]methyl}-4-trifluoromethoxyphenyl)-N-ethylamino]pentanoic acid hydrochloride] | 6.16 |  | 77.7 |
| CCN(CCCCC(=O)O)c1cc2c(cc1CN(Cc1cc(C(F)(F)F)cc(C(F)(F)F)c1)c1ccn(C)n1)CCC2.Cl [Example 41, 5-[N-(6-{[N′-[3,5-bis(trifluoromethyl)benzyl]-N′-(1-methyl-1H-pyrazol-3-yl)amino]methyl}indan-5-yl)-N-ethylamino]pentanoic acid hydrochloride] | 6.29 | 36.0 |  |
| CCN(CCCCC(=O)O)c1cc2c(cc1CN(Cc1cc(C(F)(F)F)cc(C(F)(F)F)c1)c1nnn(C)n1)CCC2.Cl [Example 38, 5-[N-(6-{[N′-[3,5-bis(trifluoromethyl)benzyl]-N′-(2-methyl-2H-tetrazol-5-yl)amino]methyl}indan-5-yl)-N-ethylamino]pentanoic acid hydrochloride] | 6.33 | 79.4 |  |
| CCN(C[C@H]1CC[C@H](C(=O)O)CC1)c1ccc(OC(F)(F)F)cc1CN(Cc1cc(C(F)(F)F)cc(C(F)(F)F)c1)c1noc(C)n1.Cl [Example 109, trans-4-{[N-(2-{[N′-[3,5-bis(trifluoromethyl)benzyl]-N′-(5-methyl-[1,2,4]oxadiazol-3-yl)amino]methyl}-4-trifluoromethoxyphenyl)-N-ethylamino]methyl}cyclohexanecarboxylic acid hydrochloride] | 6.80 |  | 42.8 |
| CCN(CCC(C)(C)CC(=O)O)c1ccc(OC(F)(F)F)cc1CN(Cc1cc(C(F)(F)F)cc(C(F)(F)F)c1)c1ccn(C)n1.Cl [Example 107, 5-[N-(2-{[N′-[3,5-bis(trifluoromethyl)benzyl]-N′-(1-methyl-1H-pyrazol-3-yl)amino]methyl}-4-trifluoromethoxyphenyl)-N-ethylamino]-3,3-dimethylpentanoic acid hydrochloride] | 6.25 |  | 41.9 |
| CCN(CCC(C)(C)CC(=O)O)c1cc2c(cc1CN(Cc1cc(C(F)(F)F)cc(C(F)(F)F)c1)c1nnn(C)n1)CCC2.Cl [Example 92, 5-[N-(6-{[N′-[3,5-bis(trifluoromethyl)benzyl]-N′-(2-methyl-2H-tetrazol-5-yl)amino]methyl}indan-5-yl)-N-ethylamino]-3,3-dimethylpentanoic acid hydrochloride] | 6.72 |  | 46.9 |
| CCN(CCCCC(=O)OC)c1cc2c(cc1CN(Cc1cc(C#N)cc(C(F)(F)F)c1)c1nnn(C)n1)CCC2.Cl [Example 36] |  | 33.3 |  |
| CCN(CCCCC(=O)OC)c1cc2c(cc1CN(Cc1cc(C#N)cc(C(F)(F)F)c1)c1ccn(C)n1)CCC2 [Example 55, methyl 5-[N-(6-{[N′-(3-cyano-5-trifluoromethylbenzyl)-N′-(1-methyl-1H-pyrazol-3-yl)amino]methyl}indan-5-yl)-N-ethylamino]pentanoate hydrochloride] | 6.11 |  |  |
| CCN(CCCCC(=O)O)c1cc2c(cc1CN(Cc1cc(C#N)cc(C(F)(F)F)c1)c1ccn(C)n1)CCCC2 [Example 66, 5-[N-(3-{[N′-(3-cyano-5-trifluoromethylbenzyl)-N′-(1-methyl-1H-pyrazol-3-yl)amino]methyl}-5,6,7,8-tetrahydronaphthalen-2-yl)-N-ethylamino]pentanoic acid hydrochloride] | 6.06 |  |  |
| CCN(CCCCC(=O)O)c1cc2c(cc1CN(Cc1cc(C(F)(F)F)cc(C(F)(F)F)c1)c1nnn(C)n1)CCCC2 [Example 80, 5-[N-(3-{[N′-[3,5-bis(trifluoromethyl)benzyl]-N′-(2-methyl-2H-tetrazol-5-yl)amino]methyl}-5,6,7,8-tetrahydronaphthalen-2-yl)-N-ethylamino]pentanoic acid hydrochloride] | 6.37 |  |  |
| CCN(C[C@H]1CC[C@H](CO)CC1)c1cc(C(F)(F)F)c(C)cc1CN(Cc1cc(C(F)(F)F)cc(C(F)(F)F)c1)c1nnn(C)n1 [Example 141, trans-(4-{[N-(2-{[N′-[3,5-bis(trifluoromethyl)benzyl]-N′-(2-methyl-2H-tetrazol-5-yl)amino]methyl}-4-methyl-5-trifluoromethylphenyl)-N-ethylamino]methyl}cyclohexyl)methanol hydrochloride] | 6.92 |  |  |
| CCN(C[C@H]1CC[C@H](C(=O)O)CC1)c1cc2c(cc1CN(Cc1cc(C(F)(F)F)cc(C(F)(F)F)c1)c1nnn(CC)n1)CCCC2 [Example 99, trans-4-{[N-(3-{[N′-[3,5-bis(trifluoromethyl)benzyl]-N′-(2-ethyl-2H-tetrazol-5-yl)amino]methyl}-5,6,7,8-tetrahydronaphthalen-2-yl)-N-ethylamino]methyl}cyclohexanecarboxylic acid hydrochloride] | 6.28 |  |  |
| CCN(CCCCC(=O)O)c1cc2c(cc1CN(Cc1cc(C#N)cc(C(F)(F)F)c1)c1cc(C)no1)CCCC2 [Example 79, 5-[N-(3-{[N′-(3-cyano-5-trifluoromethylbenzyl)-N′-(3-methylisoxazol-5-yl)amino]methyl}-5,6,7,8-tetrahydronaphthalen-2-yl)-N-ethylamino]pentanoic acid hydrochloride] | 6.05 |  |  |
| CCN(CC1CCCC1)c1cc2c(cc1CN(Cc1cc(C(F)(F)F)cc(C(F)(F)F)c1)c1nnn(C)n1)CCC2 [Example 3, N-[3,5-bis(trifluoromethyl)benzyl]-N-[6-(N′-cyclopentylmethyl-N′-ethylamino)indan-5-ylmethyl]-(2-methyl-2H-tetrazol-5-yl)amine] | 6.62 |  |  |
